Reference: patent publication US20060079453A1, “Hla binding peptides and their uses” (priority 2002, published 2006)
Like-named read-outs stand apart in the source and are kept apart here. No end group written: not given here.

Key:
Test in all cases: biochemical
Format in all cases: binding
HLA-A*0201 = HLA-A*0201 (Homo sapiens, UniProt P04439, D140Y/D185E/D98H/E176V/E277Q/G131W/G231S/I119V/I121R/I166T/I218V/L300P/L318F/N151K/N90K/P208A/P217A/Q86G/Q94H/R138H/R169H/T345S)
HLA-A*0202 = HLA-A*0202 (Homo sapiens, UniProt P04439, D140Y/D185E/D98H/E176V/E277Q/G131W/G231S/I119L/I121R/I166T/I218V/L180W/L300P/L318F/N151K/N90K/P208A/P217A/Q67R/Q86G/Q94H/R138H/R169H/T345S)
HLA-A*0203 = HLA-A*0203 (Homo sapiens, UniProt P04439, A173T/D140Y/D185E/D98H/E277Q/G131W/G231S/I119V/I121R/I166T/I218V/L180W/L300P/L318F/N151K/N90K/P208A/P217A/Q86G/Q94H/R138H/R169H/T345S)
HLA-A*0206 = HLA-A*0206 (Homo sapiens, UniProt P04439, D140Y/D185E/D98H/E176V/E277Q/F33Y/G131W/G231S/I119V/I121R/I166T/I218V/L300P/L318F/N151K/N90K/P208A/P217A/Q86G/Q94H/R138H/R169H/T345S)
HLA-A*6802 = HLA-A*6802 (Homo sapiens, UniProt P04439, A269V/D140Y/D185E/E176V/E277Q/E87N/F33Y/G231S/I121R/I166T/I218V/L180W/L300P/L318F/N151K/P208A/P217A/Q86R/R138H/R169H/S129P/T345S/V36M)
[1] = A*0201 binding affinity (expressed as an IC50)
[2] = A*0202 binding affinity (expressed as an IC50)
[3] = A*0203 binding affinity (expressed as an IC50)
[4] = A*0206 binding affinity (expressed as an IC50)
[5] = A*6802 binding affinity (expressed as an IC50)

Compound	IC50 (HLA-A*0201; [1]) [nM]	IC50 (HLA-A*0202; [2]) [nM]	IC50 (HLA-A*0203; [3]) [nM]	IC50 (HLA-A*0206; [4]) [nM]	IC50 (HLA-A*6802; [5]) [nM]	also measured
VLAEAMSQT						IC50 (HLA-A*0201): 290 nM; IC50 (HLA-A*0202): 2.2 nM; IC50 (HLA-A*0203): 0.65 nM; IC50 (HLA-A*0206): 236 nM; IC50 (HLA-A*6802): 447 nM
KLTPLCVSL	67	2.4	240	16	5950	
VLAEAMATA	6.7	1.4	0.73	8.6	33	
CC(C)C[C@H](NC(=O)[C@H](CCCNC(=N)N)NC(=O)[C@H](CC(C)C)NC(=O)[C@@H](NC(=O)[C@H](C)NC(=O)[C@@H](NC(=O)CNC(=O)[C@H](CC(=O)O)NC(=O)[C@H](CC(C)C)NC(=O)[C@@H](N)CC(C)C)[C@@H](C)O)[C@@H](C)O)C(=O)O	180	1.9	201	841	> 421000	
LTFGWCFKV						IC50 (HLA-A*0201): 15 nM; IC50 (HLA-A*0202): 33 nM; IC50 (HLA-A*0203): 1170 nM; IC50 (HLA-A*0206): 187 nM; IC50 (HLA-A*6802): 9.7 nM
SLLGPGPGAV	95	17	2.6	642	795	
QLFEDKYAL [QLFEDKYAL]	646	1.8	380	2010	2980	
MTGNPPVPV	2020	158	23	35	0.84	
QLVFGPGPGEV	2940		50	4070	447	
VVQAGFFLV	440	79	2500	81	617	
WLSGPGPGV	220	2.5	12	885	24	
VLFLQMMNV	31	1.8	2.7	9.5	323	
VLVHPQWVV	464	65	1990	3220	14600	
AMAKAAAAT	15100		84	37000	> 26700	
GVLGWSPQV						IC50 (HLA-A*0201): 22 nM; IC50 (HLA-A*0202): 157 nM; IC50 (HLA-A*0203): 389 nM; IC50 (HLA-A*0206): 28 nM; IC50 (HLA-A*6802): 9430 nM
MMIMIKFMGV	123	19	25	109	39	
MTSNPPIPV	53	16	0.39	250	3.8	
KITPLCVTL	461	36	528	59	883	
MTGNPSIPV						IC50 (HLA-A*0201): 16 nM; IC50 (HLA-A*0202): 1.1 nM; IC50 (HLA-A*0203): 0.43 nM; IC50 (HLA-A*0206): 257 nM; IC50 (HLA-A*6802): 0.57 nM
VLRLFVCFLI	2740	2110	299	68200	45600	
FAPGFFPYL	48	0.85	44	2.3	7.6	
VLAEAMSKV	230	1.8	1.4	93	329	
LLGPGPGV	25	49	123	93	5620	
QLVFGGPGPGV	2150	96		3210	1320	
FLPGPGPGSV	98	18	4	665	332	
SLLNGPGPGV	65	3.8	14	63	45	

Compound	IC50 (HLA-A*0201; [1]) [nM]	IC50 (HLA-A*0202; [2]) [nM]	IC50 (HLA-A*0203; [3]) [nM]	IC50 (HLA-A*0206; [4]) [nM]	IC50 (HLA-A*6802; [5]) [nM]	also measured
YLGPGPGAGI	161	1	4.2	548	315	
YLLGPGPGGI	180	12	3.3	89	2060	
YQDPQNYEL	79	18		52	167000	
MLLSVPLLL	9	79	41	8.4	24600	
LLWQPIPV	137	2440	9.9	4250	32900	
FLPSGPGPGV	21	1.2	3.4	64	40	
MTSNPPVPV	22	29	0.8	81	1.1	
FLKEKGGLDGV						IC50 (HLA-A*0201): 332 nM; IC50 (HLA-A*0202): 3.7 nM; IC50 (HLA-A*0203): 11 nM; IC50 (HLA-A*0206): 3210 nM; IC50 (HLA-A*6802): 3810 nM
RLDILDLWV						IC50 (HLA-A*0201): 43 nM; IC50 (HLA-A*0203): 1640 nM; IC50 (HLA-A*0206): 2640 nM; IC50 (HLA-A*6802): > 17800 nM
PVPLQLPPV						IC50 (HLA-A*0201): 10000 nM; IC50 (HLA-A*0202): > 7340 nM; IC50 (HLA-A*0203): 12600 nM; IC50 (HLA-A*0206): 81 nM; IC50 (HLA-A*6802): > 15600 nM
YVDDVVLGV	18	14	70	16	354	
YLLTLWKAGI						IC50 (HLA-A*0201): 20 nM; IC50 (HLA-A*0202): 19 nM; IC50 (HLA-A*0203): 20 nM; IC50 (HLA-A*0206): 40 nM; IC50 (HLA-A*6802): 1390 nM
IVYSAHDTTV	7640	91		356	737	
WLNYTPGPGT						IC50 (HLA-A*0201): 547 nM; IC50 (HLA-A*0202): 124 nM; IC50 (HLA-A*0203): 231 nM; IC50 (HLA-A*0206): > 31600 nM; IC50 (HLA-A*6802): 11800 nM
QLVGPGPGMEV	865	17	19	919	223	
KLGSLQYL						IC50 (HLA-A*0201): 1860 nM; IC50 (HLA-A*0202): 14 nM; IC50 (HLA-A*0206): 9010 nM; IC50 (HLA-A*6802): > 19500 nM
LLYSKKRQEIL						IC50 (HLA-A*0201): > 38200 nM; IC50 (HLA-A*0203): 1570 nM; IC50 (HLA-A*0206): > 8560 nM; IC50 (HLA-A*6802): > 14300 nM
CC[C@H](C)[C@H](NC(=O)[C@H](C)NC(=O)[C@H](CO)NC(=O)[C@@H](NC(=O)[C@H](Cc1ccccc1)NC(=O)[C@H](CCC(N)=O)NC(=O)[C@H](C)NC(=O)[C@H](CC(C)C)NC(=O)[C@H](CC(C)C)NC(=O)[C@@H](N)Cc1ccccc1)[C@@H](C)O)C(=O)O	65	1.9	4.8	148		
FLFLLYILFL	2830		2010	2110	8250	
FLVFLVFSNV	269			232	5390	
KLTPLCVAL [KLTPLCVAL]						IC50 (HLA-A*0201): 209 nM; IC50 (HLA-A*0202): 2.3 nM; IC50 (HLA-A*0203): 54 nM; IC50 (HLA-A*0206): 11 nM
KLTPLCVTM	340	3.6		197	6290	
AXAKAAAAL						IC50 (HLA-A*0201; read-out: A*0201 binding affinity (expressed as an IC50)): > 50000 nM; IC50 (HLA-A*0203; read-out: A*0203 binding affinity (expressed as an IC50)): 3300 nM; IC50 (HLA-A*0206; read-out: A*0206 binding affinity (expressed as an IC50)): 37000 nM; IC50 (HLA-A*6802; read-out: A*6802 binding affinity (expressed as an IC50)): > 11400 nM
ILAEAMASA	22	0.72	0.82	6.8		
FVLSLGIHV	45	399	2820	131		
LQLPPLERV						IC50 (HLA-A*0201): 7950 nM; IC50 (HLA-A*0202): 7710 nM; IC50 (HLA-A*0203): 13500 nM; IC50 (HLA-A*0206): 203 nM
